Laboratory results from article PMC10829512, “Transport of metformin metabolites by guanidinium exporters of the small multidrug resistance family” (The Journal of General Physiology, 2024).
Like-named read-outs stand apart in the source and are kept apart here.

Tests used:
Gdx-Clo [1] = target: T1, Gdx-Clo (Clostridiales bacterium oral taxon 876, UniProt U2EQ00); assay: Tryptophan fluorescence substrate binding; parameters: species or system Clostridales oral taxon 876
T1 sequence (U2EQ00 1-105): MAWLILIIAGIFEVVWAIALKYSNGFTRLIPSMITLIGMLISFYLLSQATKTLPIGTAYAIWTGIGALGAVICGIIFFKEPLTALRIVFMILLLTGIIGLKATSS
Method: Fluorescence emission spectra (λex = 280 nm, […]) were collected for 1 µM purified protein in assay buffer containing 200 mM NaCl, 10 mM HEPES, 10 mM bicine, 10 mM NaPO4, and 5 mM DM, with pH adjusted from 6.5 to 9.0. Substrate was added from a stock solution prepared in assay buffer. For Gdm^+ titrations, the change in fluorescence, F, as a function of substrate fit to a single site binding isotherm, ∆F=(Fmax[S]/Kd+[S]). (3)
To derive the Ka values and Kd values from the apparent Kd measured as a function of pH, we used the following equation, which uses the approximation that the protonatable E13 sidechains have equal Ka values: Kd,app=(Kd)*(1+([H^+]/Ka))*(1+([H^+]/Ka)). (5)

Gdx-Clo [2] = target: T1, Gdx-Clo; assay: SSM electrophysiology of Gdx-Clo proteoliposomes; format: biochemical, Clostridales oral taxon 876; details: for Transport currents in substrate screen: 2 mM substrate
Method: Gdx-Clo ([Kermani et al., 2018]), Gdx-Eco ([Kermani et al., 2018]), EmrE ([Kermani et al., 2022]), and Gdx-pAmi ([Martinez-Vaz et al., 2022]) construct design and purification have been described previously. […] Proteins were overexpressed in C41(DE3). Expression was induced by the addition of 0.2 mM IPTG for 3 h. Cells were lysed and extracted with 2% n-decyl-β-D-maltoside (DM) for 2 h. After pelleting insoluble cell debris, proteins were purified using cobalt affinity resin. Wash buffer contained 25 mM Tris, pH 8.5, 150 mM NaCl, and 5 mM DM. For Gdx-pAmi, NaCl concentration was increased to 500 mM NaCl. The affinity column was washed with wash buffer, then wash buffer with 10 mM imidazole, prior to elution with wash buffer with 400 mM imidazole. For Gdx-Clo and Gdx-Eco, histidine tags were cleaved with LysC (200 ng/mg of protein; 2 h at room temperature; New England Biolabs), and for all others, histidine tags were cleaved with thrombin (1 U/mg of protein, overnight at room temperature; MilliporeSigma). Proteins were further purified using a gel filtration Superdex200 column (Cytiva) equilibrated with 100 mM NaCl, 10 mM N-2-hydroxyethylpiperazine-N′-2-ethanesulfonic acid (HEPES), pH 7.5, and 5 mM DM. Purified proteins were stored at 4°C for up to 5 days before detergent binding assays. To prepare proteoliposomes for electrophysiology assays, purified protein was mixed with E. coli polar lipid extract (10 mg/ml; Avanti Polar Lipids) solubilized with 35 mM 3-[(3-cholamidopropyl)dimethylammonio]-1-propanesulfonate (CHAPS) at a protein to lipid ratio of 40 μg SMR transporter: mg lipid (1:370 protein:lipid molar ratio) prior to detergent removal by dialysis. For preparations that included Fluc-Bpe, liposomes were reconstituted with a molar ratio of 0.3 Fluc-Bpe:1 SMRGdx: 5920 lipid (1 μg Fluc-Bpe and ∼2.5 μg SMRGdx per mg lipid). For liposome transport assays, proteoliposomes were prepared similarly, except that a 2:1 mixture of 1-palmitoyl, 2-oleoylphosphatidylethanolamine (POPE) and 1-palmitoyl, 2-oleoylphosphatidylglycerol (POPG) (10 mg/ml; Avanti Polar Lipids) was used with 0.2 μg protein/mg lipid. Proteoliposomes were stored at −80°C until use.
SSM experiments were performed using SURFE^2R N1 instrument (Nanion Technologies). Sensors were prepared with a 1,2-diphytanoyl-sn-glycero-3-phosphocholine (DPhPC) lipid monolayer according to published protocols ([Bazzone et al., 2017]). Each sensor’s capacitance and conductance were verified before use (<80 nF capacitance, <50 nS conductance) using Nanion software protocols. Proteoliposome stock was diluted 1:25 in assay buffer (100 mM KCl, 100 mM KPO4, pH 7.5) prior to adsorption to the DPhPC monolayer. For substrate screening experiments, reference substrate samples (Gdm^+ for SMRGdx, and TPA^+ for SMRQac) were checked periodically to test for the stability of the sensor; if the current amplitude of the reference compound differed by >10% on one sensor, it indicated the desorption of liposomes, and the sensor was not used for further experiments. For every SSM electrophysiology experiment, we used the same general solution exchange protocol: after 2 s perfusion with a non-activating solution, we perfused substrate-containing buffer for 2 s and then returned to the equilibrium condition with a 4 s perfusion of non-activating buffer. For experiments with the S104C/A70C crosslinked variant, reducing conditions were established by the addition of 2.5 mM tris(2-carboxyethyl)phosphine (TCEP) to the activating and non-activating buffers.
We screened a series of metformin metabolites for transport using SSM electrophysiology (Fig. 2, A and B).

[3] = pH 6.5, tryptophan fluorescence, mean ± SEM, read-out: Kd (apparent) for substrate binding to Gdx-Clo
[4] = pH 7.0, tryptophan fluorescence, mean ± SEM, read-out: Kd (apparent) for substrate binding to Gdx-Clo
[5] = pH 7.5, tryptophan fluorescence, mean ± SEM, read-out: Kd (apparent) for substrate binding to Gdx-Clo
[6] = pH 8.0, tryptophan fluorescence, mean ± SEM, read-out: Kd (apparent) for substrate binding to Gdx-Clo
[7] = pH 8.5, tryptophan fluorescence, mean ± SEM, read-out: Kd (apparent) for substrate binding to Gdx-Clo
[8] = pH-independent Kd, glutamates assumed to have equal Ka, read-out: Kd from fit of apparent Kd versus pH to Eq. 5
[9] = pH 7.5, mean ± SEM, read-out: Km determined using SSM electrophysiology

N=C(N)N [Gdm^+, guanidinium]
Kd (Gdx-Clo [1]; [3]): 4300 ± 1000 µM | Kd (Gdx-Clo [1]; [4]): 1500 ± 300 µM | Kd (Gdx-Clo [1]; [5]): 960 ± 120 µM | Kd (Gdx-Clo [1]; [6]): 660 ± 80 µM | Kd (Gdx-Clo [1]; [7]): 480 ± 100 µM | Kd (Gdx-Clo [1]; [8]): 600 µM | Transport currents in substrate screen (Gdx-Clo [2]): transported | Km (Gdx-Clo [2]; [9]): 500 ± 100 µM | Km (Gdx-Clo [2]; read-out: Km value): 500 µM | Maximal velocity for Gdm+ relative to guanylurea (Gdx-Clo [2]; substrate at fivefold Km, normalized to Fluc-Bpe fluoride current): approximately twofold higher

N=C(N)NC(N)=O [Guanylurea, guanylurea]
Kd (Gdx-Clo [1]; [3]): 860 ± 220 µM | Kd (Gdx-Clo [1]; [4]): 190 ± 20 µM | Kd (Gdx-Clo [1]; [5]): 120 ± 20 µM | Kd (Gdx-Clo [1]; [6]): 59 ± 1 µM | Kd (Gdx-Clo [1]; [7]): 91 ± 16 µM | Kd (Gdx-Clo [1]; pH 9.0, tryptophan fluorescence, mean ± SEM, read-out: Kd (apparent) for substrate binding to Gdx-Clo): 63 ± 5 µM | Kd (Gdx-Clo [1]; [8]): 70 µM | Transport currents in substrate screen (Gdx-Clo [2]): transported | Km (Gdx-Clo [2]; [9]): 220 ± 60 µM | Km (Gdx-Clo [2]; read-out: Km value): 220 µM
